# Legend:
# [1] = UV absorption (UV-VIS spectra in 2-propanol, 1 mg/100 ml); assay type: physicochemical; parameters: UV absorbance at λmax (1 mg/100 ml): unit not given here; conditions: 1 mg/100 ml; for UV absorbance at λmax (1 mg/100 ml): value in brackets after λmax in the synthesis example
# Protocol: FIG. 1: UV absorption spectra of 1-hydroxy-3-[(E)-3-(4-methoxyphenyl)-2-propenoyloxy]-2-oxopropane (Example 1a) and 1-hydroxy-3-(2-cyano-3,3-diphenylacryloyloxy)-2-oxopropane (Example 1b) (in each case measured in 2-propanol at a concentration of 1 mg/100 ml)
# FIG. 2: UV absorption spectra of 3-[4-(3-hydroxy-2-oxopropoxymethyl)benzylidene]-4,7,7-trimethylbicyclo[2.2.1]heptan-2-one (Example 9), N-(2,3-dihydroxypropyl)-(E)-3-(4-methoxyphenyl)acrylamide (Example 10a) and N-(2,3-dihydroxypropyl)-N-methyl-(E)-3-(4-methoxyphenyl)acrylamide (Example 10b) (in each case measured in 2-propanol at a concentration of 1 mg/100 ml).
structure (smiles),measurement,setting,value
"COc1ccc(/C=C/C(=O)NCC(=O)CO[Si](C)(C)C(C)(C)C)cc1 [Example 17, N-[3-(tert-butyldimethylsilyloxy)-2-oxopropyl]-(E)-3-(4-methoxyphenyl)acrylamide]",UV-VIS λmax,[1],300.0 nm
same,UV absorbance at λmax (1 mg/100 ml),[1],0.843
same,melting point,,151 to 152 °C
"CCCCC(CC)COc1ccc(/C=C/C(=O)NCC(=O)CO)cc1 (stereo not drawn) [Example 21, N-(3-hydroxy-2-oxopropyl)-(E)-3-[4-(2-ethylhexyloxyphenyl)]acrylamide]",UV-VIS λmax,[1],307.5 nm
same,UV absorbance at λmax (1 mg/100 ml),[1],0.706
same,melting point,,155 to 157 °C
"CN(C)c1ccc(C(=O)NCC(O)CO)cc1 (stereo not drawn) [Example 10d, N-(2,3-dihydroxypropyl)-4-dimethylaminobenzamide]",UV-VIS λmax,[1],301.0 nm
same,UV absorbance at λmax (1 mg/100 ml),[1],0.947
same,melting point,,152 to 153 °C
"COc1ccc(/C=C/C(=O)N(C)CC(O)CO)cc1 (stereo not drawn) [Example 10b, N-(2,3-dihydroxypropyl)-N-methyl-(E)-3-(4-methoxyphenyl)acrylamide]",UV-VIS λmax,[1],301.0 nm
same,UV absorbance at λmax (1 mg/100 ml),[1],0.934
same,melting point,,81 to 83 °C
"N#CC(C(=O)OCC(=O)CO)=C(c1ccccc1)c1ccccc1 [Example 1b, 1-Hydroxy-3-(2-cyano-3,3-diphenylacryloyloxy)-2-oxopropane]",UV-VIS λmax,[1],303.0 nm
same,UV absorbance at λmax (1 mg/100 ml),[1],0.375
same,melting point,,204 °C (dec.)
"COc1ccc(/C=C/C(=O)OCC(=O)CO)cc1 [Example 1a, 1-Hydroxy-3-[(E)-3-(4-methoxyphenyl)-2-propenoyloxy]-2-oxopropane]",UV-VIS λmax,[1],301.0 nm
same,UV absorbance at λmax (1 mg/100 ml),[1],0.947
same,melting point,,172 to 174 °C
CN(C)c1ccc(C(=O)OCC(=O)CO[Si](C)(C)C(C)(C)C)cc1 [Example 2],UV-VIS λmax,[1],299.0 nm
same,UV absorbance at λmax (1 mg/100 ml),[1],0.67
same,melting point,,91 to 92 °C
"N#CC(C(=O)OCC(=O)COC(=O)C(C#N)=C(c1ccccc1)c1ccccc1)=C(c1ccccc1)c1ccccc1 [Example 23b, 1,3-Bis-(2-cyano-3,3-diphenylacryloyloxy)-2-oxopropane]",UV-VIS λmax,[1],304.0 nm
same,UV absorbance at λmax (1 mg/100 ml),[1],0.031
same,melting point,,209 °C
"COc1ccc(/C=C/C(=O)NCC(O)CO)cc1 (stereo not drawn) [Example 10a, N-(2,3-dihydroxypropyl)-(E)-3-(4-methoxyphenyl)acrylamide]",UV-VIS λmax,[1],298.0 nm
same,UV absorbance at λmax (1 mg/100 ml),[1],0.940
same,melting point,,104 to 106 °C

# From US7863478B2, “UV filters” (Merck Patent GmbH, priority 2004, dated 2011)
